In patent publication US20020107202A1, “Synthetic complementary peptides and ophthalmologic uses thereof” (priority 1999, published 2002):
No end group written: not given here.

Legend:
resting PMNs = assay: Polarization assay: substance alone on resting PMNs (agonist activity, chemoattractant response); assay type: cell-based, human; details: none up to the given concentration
Procedure: (§1) Following the technique of Ferrante and Thong^13, polymorphonuclear leukocytes were isolated from fresh heparinized human whole blood by centrifugation on Hypaque-Ficoll (density=1.114) according to a described method^14. Isolated polymorphonuclear leukocytes (96-99% viability) were resuspended in HBSS with 15 mM phosphate buffer at room temperature and gently agitated on a shaker. The purity of this cell suspension was ≧85% polymorphonuclear leukocytes, ≦5% mononuclear cells and platelets, with the remaining percentage consisting of red blood cells. Purified polymorphonuclear leukocytes were used in the polarization assay. All incubation mixtures were maintained between an osmolality of 280 to 320, a pH range of 7.2 to 7.6, 15 mM phosphate buffer, and 50 μM Ca^2+ and 50 μM Mg^2+.
The polarization assay^15 was performed in a blind fashion. This assay was used to determine the polymorphonuclear leukocyte response to chemoattractants and inhibitors by measuring the frequency and degree of cellular shape change. Briefly, 2×10^5 polymorphonuclear leukocytes were mixed with preincubated synthetic complementary peptides and chemoattractants in a reaction chamber (total volume=100 μl) at 37° C. for 5 min. At the end of the incubation period an aliquot was collected and mixed with an equal volume of 4% glutaraldehyde for microscopic observation. The remaining volume of each cell suspension was immediately centrifuged at 15,000× g for 5 seconds to remove cells. The resulting supernatant was analyzed for lactic dehydrogenase activity.^16 All incubations generated lactate dehydrogenase activity correlating with <5% cell death. Polymorphonuclear leukocytes in each sample were observed microscopically and assigned scores of 0 (resting=spherical cell with a smooth membrane), 1 (activated=irregular cell with uneven membranes) or 2 (polarized=cell length≧width×2). Scores of 100 polymorphonuclear leukocytes for each sample were added to produce a polarization index. A dose response was performed for each chemoattractant. […]

LTB4 activated PMN = assay: Polarization assay: inhibition of LTB4 activated PMN polarization; assay type: cell-based, human
Procedure: LTB4 was dissolved in ethanol and diluted with HBSS (pH 7.3) to a final ethanol concentration of 0.001%. Synthetic complementary peptides and synthetic chemoattractants were dissolved in HBSS (pH 7.3). When necessary, the osmolality was adjusted between 280 and 320 mOsm by adding a small amount of distilled water.
as §1
The polarization assay^15 was performed in a blind fashion. […] The resulting supernatant was analyzed for lactic dehydrogenase activity.^16 All incubations generated lactate dehydrogenase activity correlating with <5% cell death. […]

[1] = tested on: PMN activated by ultrafiltered tripeptide chemoattractants; assay: Polarization assay: inhibition of PMN polarization activated by alkali-degraded rabbit corneal ultrafiltrate; assay type: cell-based, human
Procedure: (§2) Following the technique of Ferrante and Thong^13, polymorphonuclear leukocytes were isolated from fresh heparinized human whole blood by centrifugation on Hypaque-Ficoll (density=1.114) according to a described method^14. […] Purified polymorphonuclear leukocytes were used in the polarization assay. All incubation mixtures were maintained between an osmolality of 280 to 320, a pH range of 7.2 to 7.6, 15 mM phosphate buffer, and 50 μM Ca^2+ and 50 μM Mg^2+.
(§3) The polarization assay^15 was performed in a blind fashion. This assay was used to determine the polymorphonuclear leukocyte response to chemoattractants and inhibitors by measuring the frequency and degree of cellular shape change. Briefly, 2×10^5 polymorphonuclear leukocytes were mixed with preincubated synthetic complementary peptides and chemoattractants in a reaction chamber (total volume=100 μl) at 37° C. for 5 min. At the end of the incubation period an aliquot was collected and mixed with an equal volume of 4% glutaraldehyde for microscopic observation. The remaining volume of each cell suspension was immediately centrifuged at 15,000× g for 5 seconds to remove cells. […] Polymorphonuclear leukocytes in each sample were observed microscopically and assigned scores of 0 (resting=spherical cell with a smooth membrane), 1 (activated=irregular cell with uneven membranes) or 2 (polarized=cell length≧width×2). Scores of 100 polymorphonuclear leukocytes for each sample were added to produce a polarization index. A dose response was performed for each chemoattractant. A concentration of each chemoattractant was chosen from the linear portion of each dose response curve and used as the positive control. Negative control samples consisted of polymorphonuclear leukocytes in HBSS only. […] The Student's t-test (unpaired) was used to analyze the differences in the mean polarization response between polymorphonuclear leukocytes activated with the chemoattractant in the absence or presence of complementary peptides.

[2] = tested on: alkali-injured rabbit eye; assay: Alkali-injury model, corneal ulceration; assay type: in vivo
Procedure: Animals were maintained and treated in full compliance with the Association for Research in Vision and Ophthalmology (ARVO) Resolution on the Use of Animals in Research. Forty-eight New Zealand Dutch strain albino rabbits (Myrtles Rabbitry, Thompson Station, Tenn., U.S.A.) weighing 2.0 to 2.5 kg were anesthetized with ketamine HCl (12 mg/kg) and xylazine (7.5 mg/kg). Two drops of topical proparacaine (Allergan, Hormigueros, Puerto Rico) were placed in the right eye of each rabbit. Following ocular proptosis, a 12 mm plastic well was centered on the cornea and 0.4 ml of 1 N NaOH instilled into the well and left for a period of 35 sec. The alkali was aspirated and the well irrigated with 10 ml of physiological saline. Erythromycin ointment (0.5%) was applied two times a day and study medications given by the technique of Fraunfelder. Double blind examinations (slit lamp and dissecting microscopy) were conducted on Monday, Wednesday and Friday with photographs on Wednesday. Evaluation was made for the presence and size of epithelial defects, corneal ulceration, perforation and vascularization. Animals were randomly subdivided into two groups of 16 eyes each: 1) Phosphate buffered saline (PBS) control and 2) 800 μM (D)-RTR tetramer in PBS or 1.5 mM (L)-RTR tetramer in PBS alternating every hour. Each animal received one drop of the appropriate medication every hour for 14 hours a day for 33 days and dropping was discontinued until the end of the experiment on day 42.

[3] = tested on: N-acetyl-PGP activated PMN; assay: Polarization assay: inhibition of N-acetyl-PGP activated PMN polarization; assay type: cell-based, human; details: for inhibitory properties against N-acetyl-PGP, fold less than the RTR dimer: comparison of ID50 values
Procedure: as §2, §3

[4] = day 42, 16 eyes, topical drops to day 33

Row | Substance | Agonist Activity (resting PMNs) | antagonism of LTB4 activation of PMNs, in words (LTB4 activated PMN) | inhibition of PMNs activated by the ultrafiltered tripeptide chemoattractants, in words [1] | TOTAL ULCERS End of expt (day 42) (number) ([2]; 16 eyes, day 42) | TOTAL ULCERS End of expt (day 42) (percent of eyes) ([2]; 16 eyes, day 42) [%] | TOTAL ULCERS During expt (number) ([2]; 16 eyes, during experiment) | TOTAL ULCERS During expt (percent of eyes) ([2]; 16 eyes, during experiment) [%] | incidence of corneal ulcers after alkali-injury, in words ([2]; compared to PBS group) | number of ulcers ([2]; day 33, 16 eyes, 800 μM (D)- and 1.5 mM (L)-RTR tetramer drops alternating every hour) [ulcers] | ULCER DEPTH: Anterior (eyes) [2, 4] | ULCER DEPTH: Descemetocele (eyes) [2, 4] | ULCER DEPTH: Middle (eyes) [2, 4] | ULCER DEPTH: No Ulcer (eyes) [2, 4] | ULCER DEPTH: Perforation (eyes) [2, 4] | ULCER DEPTH: Posterior (eyes) [2, 4] | affinity for N-acetyl-PGP, fold greater than the RTR monomer [3] | inhibition of N-acetyl-PGP activated PMN polarization, in words [3] | inhibitory properties against N-acetyl-PGP, fold less than the RTR dimer [3] [fold]
1 | ((H2N-Arg-Thr-Arg-Gly-Gly)2-Lys)2-Lys-Ala-CONH2 (H-RTRGG; also: tetrameric Lys-branched, on Lys-Ala-CONH2 core) [RTR tetramer] | None, ≦ 8 mM | no effect on LTB4 | inhibited | 6 | 37.5 | 7 | 43.8 | statistically significant reduction in the frequency of corneal ulceration | 4 | 4 | 1 | 0 | 9 | 0 | 2 | 10,000 fold | – | –
2 | Arg-Thr-Arg [RTR] | None, ≦ 40 mM | – | inhibited | – | – | – | – | – | – | – | – | – | – | – | – | – | only antagonistic at millimolar concentrations | 20
3 | RTRGG | None, ≦ 40 mM | – | inhibited | – | – | – | – | – | – | – | – | – | – | – | – | – | only antagonistic at millimolar concentrations | 20
